Laboratory results: publication PMC6016545 (Journal of medicinal chemistry, 2016)
Read-outs that look alike come from different tables or passages of the source.

Columns and labels:
PSMA [1] = target: T1, PSMA (Homo sapiens, UniProt Q04609); assay: PSMA inhibition, IC50 determination
PSMA [2] = target: T1, PSMA; assay: Mode of inhibition study; details: reversible, slowly reversible, or irreversible
PSMA(+) PC3-PIP cells = details: cited from earlier work

T1 sequence (Q04609 whole entry): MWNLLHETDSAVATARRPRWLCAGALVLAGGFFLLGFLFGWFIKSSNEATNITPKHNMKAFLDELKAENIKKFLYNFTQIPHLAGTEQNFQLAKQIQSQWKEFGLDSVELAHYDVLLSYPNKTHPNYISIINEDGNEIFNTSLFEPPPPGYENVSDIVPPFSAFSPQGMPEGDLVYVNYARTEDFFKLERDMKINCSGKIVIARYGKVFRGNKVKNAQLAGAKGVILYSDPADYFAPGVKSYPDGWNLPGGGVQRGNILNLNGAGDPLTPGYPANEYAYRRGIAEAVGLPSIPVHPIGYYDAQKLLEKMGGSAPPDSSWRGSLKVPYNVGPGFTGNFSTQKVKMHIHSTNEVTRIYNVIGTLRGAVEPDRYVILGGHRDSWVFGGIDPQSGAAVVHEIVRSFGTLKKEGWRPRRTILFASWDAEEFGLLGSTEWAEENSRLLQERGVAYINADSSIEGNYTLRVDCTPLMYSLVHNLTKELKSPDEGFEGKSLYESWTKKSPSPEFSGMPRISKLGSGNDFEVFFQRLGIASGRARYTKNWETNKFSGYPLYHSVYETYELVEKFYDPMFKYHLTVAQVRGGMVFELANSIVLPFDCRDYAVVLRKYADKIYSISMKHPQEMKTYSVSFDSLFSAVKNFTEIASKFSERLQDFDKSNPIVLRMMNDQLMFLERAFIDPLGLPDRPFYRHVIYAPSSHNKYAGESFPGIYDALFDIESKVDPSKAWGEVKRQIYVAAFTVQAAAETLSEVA

Row | Compound | IC50 (PSMA [1]) [nM] | mode of binding to PSMA (PSMA [2]) | further results
1 | NCCCCCC(=O)NCCCCCC(=O)N[C@@H](CCC(=O)N[C@H](CCCOP(=O)(O)NC(CCC(=O)O)C(=O)O)C(=O)O)C(=O)O (stereo partly drawn) [compound 3, 2-(((S)-((4R)-4-(4-(6-(6-Aminohexanamido)-hexanamido)-4-carboxybutanamido)-4-carboxybutoxy)-(hydroxy)phosphoryl)amino)pentanedioic Acid] | 7.8 | – | –
2 | O=C(O)CCC(NP(=O)(O)OCCC[C@@H](NC(=O)CC[C@H](NC(=O)CCCCCNC(=O)CCCCCNC(=O)c1ccc(F)cc1)C(=O)O)C(=O)O)C(=O)O (stereo partly drawn) [compound 6, 2-(((S)-(((22R)-17,22-Dicarboxy-1-(4-fluoro-phenyl)-1,8,15,20-tetraoxo-2,9,16,21-tetraazapentacosan-25-yl)oxy)(hydroxy)phosphoryl)amino)pentanedioic Acid] | 0.9 | irreversible | –
3 | O=C(O)CC[C@H](NP(=O)(O)OCCC[C@H](NC(=O)CC[C@H](NC(=O)CCCCCNC(=O)c1ccc(F)cc1)C(=O)O)C(=O)O)C(=O)O [compound 5] | 0.4 | irreversible | –
4 | O=C(O)CCC(NC(=O)NC(CCCCNC(=O)c1ccc([18F])nc1)C(=O)O)C(=O)O (stereo not shown) [[^18F]DCFPyL, 2-(3-(1-carboxy-5-[(6-[^18F]-fluoropyridine-3-carbonyl)amino]pentyl)ureido)pentanedioic acid] | – | – | liver uptake (PSMA(+) PC3-PIP cells; 2 h): 2.14%; renal uptake (PSMA(+) PC3-PIP cells; 2 h): 15.7%; tumor uptake (PSMA(+) PC3-PIP cells; 2 h in PC3-PIP cells): 39.4%
5 | O=C(O)CC[C@H](NC(=O)N[C@@H](CSCc1ccc([18F])cc1)C(=O)O)C(=O)O [[^18F]DCFBC, N[N-[(S)-1,3-dicarboxypropyl]carbamoyl]-4-[^18F] fluorobenzyl-L-cysteine] | – | – | tumor uptake (PSMA(+) PC3-PIP cells; PSMA(+) PC3-PIP cells): 4.7%; tumor/blood ratio (PSMA(+) PC3-PIP cells; PSMA(+) PC3-PIP cells): 13
